Where a name gives a salt, the structure may show the parent alone. Activity calls are given as the source filed them.
Key:
Bcl-2-related protein A1 = target: T1, Bcl-2-related protein A1 (Mus musculus, UniProt Q07440); format: functional;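 further: confirmatory dose–response counterscreen on Bfl-1, used to check hits from a UBC13 polyubiquitin inhibitor campaign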
T1 sequence (Q07440 whole entry): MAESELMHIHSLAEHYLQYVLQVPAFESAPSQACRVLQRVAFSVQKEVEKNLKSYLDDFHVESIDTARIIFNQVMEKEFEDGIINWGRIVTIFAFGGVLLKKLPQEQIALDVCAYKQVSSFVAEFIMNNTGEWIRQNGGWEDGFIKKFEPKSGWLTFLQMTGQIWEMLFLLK

[1] = target: T2, Ubiquitin-conjugating enzyme E2 N (Homo sapiens, UniProt P61088); format: functional
T2 sequence (P61088 whole entry): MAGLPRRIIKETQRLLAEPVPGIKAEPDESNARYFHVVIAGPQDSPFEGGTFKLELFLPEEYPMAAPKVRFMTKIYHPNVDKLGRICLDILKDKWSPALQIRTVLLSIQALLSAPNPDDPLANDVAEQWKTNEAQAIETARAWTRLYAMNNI

[2] = target: T2, Ubiquitin-conjugating enzyme E2 N; format: functional; remark: listed apart in the source
SUMO-activating enzyme = SUMO-activating enzyme (Homo sapiens, UniProt Q9UBT2); experiment: SUMOylation inhibitor hit validation, confirmation, SUMOylation inhibitor project, biochemical, AlphaScreen (AID 2018); format: functional
[3] = target: T3, Dual specificity protein phosphatase 3 (Homo sapiens, UniProt P51452); experiment: VHR1 phosphatase inhibitors, primary screen, biochemical, absorbance, uHTS (AID 1654)
[4] = target: T3, Dual specificity protein phosphatase 3; experiment: VHR1 phosphatase inhibitors, biochemical (AID 1878)
[5] = target: T4, Dual specificity protein phosphatase 6 (Rattus norvegicus, UniProt Q64346); experiment: MKP-3 phosphatase inhibitors, primary screen, biochemical, rat enzyme, in vitro (AID 425)
T4 sequence (Q64346 whole entry): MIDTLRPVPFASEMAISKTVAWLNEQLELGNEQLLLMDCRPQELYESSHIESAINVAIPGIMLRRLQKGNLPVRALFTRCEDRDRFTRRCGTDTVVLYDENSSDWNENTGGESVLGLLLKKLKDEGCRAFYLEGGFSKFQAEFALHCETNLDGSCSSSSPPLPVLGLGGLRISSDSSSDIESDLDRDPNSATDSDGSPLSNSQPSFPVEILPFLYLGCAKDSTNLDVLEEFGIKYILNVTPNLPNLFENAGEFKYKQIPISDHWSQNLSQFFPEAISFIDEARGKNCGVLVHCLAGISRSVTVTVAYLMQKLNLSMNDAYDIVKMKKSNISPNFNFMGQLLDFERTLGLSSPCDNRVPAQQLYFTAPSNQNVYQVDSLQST

[6] = target: T5, Polyadenylate-binding protein 1 (Homo sapiens, UniProt P11940); experiment: PABP1 MLLE–PAM2 interaction inhibitors, dose response, miRNA deadenylation inhibitor project, biochemical, fluorescence polarization, Cy5-PAM2 peptide, secondary (AID 602260); format: functional; details: read-out: IC50_Mean
[7] = target: T5, Polyadenylate-binding protein 1; experiment: PABP1 MLLE–PAM2 binding inhibitor potency, dose response, biochemical, fluorescence polarization, FITC-PAM2 peptide (AID 602259); format: functional; details: read-out: IC50_Mean
Cytochrome P450 2D6 = Cytochrome P450 2D6 (Homo sapiens, UniProt P10635);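 further: CYP2D6 member of a cytochrome P450 panel assay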
Cytochrome P450 2C9 = Cytochrome P450 2C9 (Homo sapiens, UniProt P11712)
[8] = target: Voltage-dependent T-type calcium channel subunit alpha-1H (Homo sapiens, UniProt O95180); experiment: Cav3.2 T-type channel inhibitors, synthesized analogs, SAR follow-up, cell-based, synthetic library set 2, HEK293 HH8, Fluo-4 (AID 493023); format: functional
SUMO E1/E2 = SUMO E1/E2 (Homo sapiens, UniProt P63279+Q9UBE0+Q9UBT2); experiment: SAR analysis of SUMOylation using HTRF in an in-Vitro dose response assay. [Related pubchem assays (depositor defined):AID2006, AID2011, AID2018, AID2069, AID2658]; format: functional
[9] = target: T6, Voltage-gated N-type calcium channel alpha-1B subunit/Amyloid beta A4 precursor protein-binding family A member 1 (Homo sapiens, UniProt Q00975+Q02410); experiment: disruptors of Mint-PDZ/N-type channel peptide interaction – biochemical, HTRF, set 2, SAR follow-up (AID 434980); format: functional
[10] = target: T6, Voltage-gated N-type calcium channel alpha-1B subunit/Amyloid beta A4 precursor protein-binding family A member 1; experiment: disruptors of Mint-PDZ/N-type channel peptide interaction – biochemical, HTRF, SAR follow-up (AID 2489); format: functional

Chain of Cytochrome P450 2D6 (P10635 whole entry): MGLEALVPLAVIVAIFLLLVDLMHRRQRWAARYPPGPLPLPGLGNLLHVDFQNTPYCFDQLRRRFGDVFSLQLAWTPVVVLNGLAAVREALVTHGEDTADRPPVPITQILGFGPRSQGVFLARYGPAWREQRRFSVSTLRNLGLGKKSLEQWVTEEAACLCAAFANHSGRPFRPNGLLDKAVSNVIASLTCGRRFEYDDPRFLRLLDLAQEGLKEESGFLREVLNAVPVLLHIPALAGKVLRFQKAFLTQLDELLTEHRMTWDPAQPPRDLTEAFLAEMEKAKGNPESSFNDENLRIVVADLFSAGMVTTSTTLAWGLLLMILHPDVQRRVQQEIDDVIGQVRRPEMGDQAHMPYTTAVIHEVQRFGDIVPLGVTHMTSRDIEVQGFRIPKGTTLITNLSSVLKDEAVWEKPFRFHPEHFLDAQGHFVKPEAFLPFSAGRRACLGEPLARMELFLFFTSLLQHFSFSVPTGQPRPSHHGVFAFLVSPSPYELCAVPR
T3 sequence (P51452 whole entry): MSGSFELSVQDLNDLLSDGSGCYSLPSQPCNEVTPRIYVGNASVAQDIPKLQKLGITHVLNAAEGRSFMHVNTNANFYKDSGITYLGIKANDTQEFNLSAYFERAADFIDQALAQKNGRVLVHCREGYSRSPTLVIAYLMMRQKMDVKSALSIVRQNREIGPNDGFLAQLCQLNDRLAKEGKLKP
T5 sequence (P11940 whole entry): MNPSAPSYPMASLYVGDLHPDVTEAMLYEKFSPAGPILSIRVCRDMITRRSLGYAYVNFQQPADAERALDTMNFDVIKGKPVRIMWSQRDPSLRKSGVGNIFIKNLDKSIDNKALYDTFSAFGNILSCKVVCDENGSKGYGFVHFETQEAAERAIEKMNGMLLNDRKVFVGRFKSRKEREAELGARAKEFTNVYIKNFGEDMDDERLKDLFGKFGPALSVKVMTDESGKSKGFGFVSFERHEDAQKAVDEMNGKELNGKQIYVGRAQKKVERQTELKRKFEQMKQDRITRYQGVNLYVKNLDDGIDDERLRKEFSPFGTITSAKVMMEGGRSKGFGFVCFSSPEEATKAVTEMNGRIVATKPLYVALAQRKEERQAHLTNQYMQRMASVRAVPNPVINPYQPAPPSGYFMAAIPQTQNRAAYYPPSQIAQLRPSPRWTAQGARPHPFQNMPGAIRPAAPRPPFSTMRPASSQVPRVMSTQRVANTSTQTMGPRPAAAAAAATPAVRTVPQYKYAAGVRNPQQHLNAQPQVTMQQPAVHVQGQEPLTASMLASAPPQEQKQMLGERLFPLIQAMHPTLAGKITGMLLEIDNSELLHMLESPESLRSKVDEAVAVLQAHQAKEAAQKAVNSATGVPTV
T6 sequence (Q00975 whole entry): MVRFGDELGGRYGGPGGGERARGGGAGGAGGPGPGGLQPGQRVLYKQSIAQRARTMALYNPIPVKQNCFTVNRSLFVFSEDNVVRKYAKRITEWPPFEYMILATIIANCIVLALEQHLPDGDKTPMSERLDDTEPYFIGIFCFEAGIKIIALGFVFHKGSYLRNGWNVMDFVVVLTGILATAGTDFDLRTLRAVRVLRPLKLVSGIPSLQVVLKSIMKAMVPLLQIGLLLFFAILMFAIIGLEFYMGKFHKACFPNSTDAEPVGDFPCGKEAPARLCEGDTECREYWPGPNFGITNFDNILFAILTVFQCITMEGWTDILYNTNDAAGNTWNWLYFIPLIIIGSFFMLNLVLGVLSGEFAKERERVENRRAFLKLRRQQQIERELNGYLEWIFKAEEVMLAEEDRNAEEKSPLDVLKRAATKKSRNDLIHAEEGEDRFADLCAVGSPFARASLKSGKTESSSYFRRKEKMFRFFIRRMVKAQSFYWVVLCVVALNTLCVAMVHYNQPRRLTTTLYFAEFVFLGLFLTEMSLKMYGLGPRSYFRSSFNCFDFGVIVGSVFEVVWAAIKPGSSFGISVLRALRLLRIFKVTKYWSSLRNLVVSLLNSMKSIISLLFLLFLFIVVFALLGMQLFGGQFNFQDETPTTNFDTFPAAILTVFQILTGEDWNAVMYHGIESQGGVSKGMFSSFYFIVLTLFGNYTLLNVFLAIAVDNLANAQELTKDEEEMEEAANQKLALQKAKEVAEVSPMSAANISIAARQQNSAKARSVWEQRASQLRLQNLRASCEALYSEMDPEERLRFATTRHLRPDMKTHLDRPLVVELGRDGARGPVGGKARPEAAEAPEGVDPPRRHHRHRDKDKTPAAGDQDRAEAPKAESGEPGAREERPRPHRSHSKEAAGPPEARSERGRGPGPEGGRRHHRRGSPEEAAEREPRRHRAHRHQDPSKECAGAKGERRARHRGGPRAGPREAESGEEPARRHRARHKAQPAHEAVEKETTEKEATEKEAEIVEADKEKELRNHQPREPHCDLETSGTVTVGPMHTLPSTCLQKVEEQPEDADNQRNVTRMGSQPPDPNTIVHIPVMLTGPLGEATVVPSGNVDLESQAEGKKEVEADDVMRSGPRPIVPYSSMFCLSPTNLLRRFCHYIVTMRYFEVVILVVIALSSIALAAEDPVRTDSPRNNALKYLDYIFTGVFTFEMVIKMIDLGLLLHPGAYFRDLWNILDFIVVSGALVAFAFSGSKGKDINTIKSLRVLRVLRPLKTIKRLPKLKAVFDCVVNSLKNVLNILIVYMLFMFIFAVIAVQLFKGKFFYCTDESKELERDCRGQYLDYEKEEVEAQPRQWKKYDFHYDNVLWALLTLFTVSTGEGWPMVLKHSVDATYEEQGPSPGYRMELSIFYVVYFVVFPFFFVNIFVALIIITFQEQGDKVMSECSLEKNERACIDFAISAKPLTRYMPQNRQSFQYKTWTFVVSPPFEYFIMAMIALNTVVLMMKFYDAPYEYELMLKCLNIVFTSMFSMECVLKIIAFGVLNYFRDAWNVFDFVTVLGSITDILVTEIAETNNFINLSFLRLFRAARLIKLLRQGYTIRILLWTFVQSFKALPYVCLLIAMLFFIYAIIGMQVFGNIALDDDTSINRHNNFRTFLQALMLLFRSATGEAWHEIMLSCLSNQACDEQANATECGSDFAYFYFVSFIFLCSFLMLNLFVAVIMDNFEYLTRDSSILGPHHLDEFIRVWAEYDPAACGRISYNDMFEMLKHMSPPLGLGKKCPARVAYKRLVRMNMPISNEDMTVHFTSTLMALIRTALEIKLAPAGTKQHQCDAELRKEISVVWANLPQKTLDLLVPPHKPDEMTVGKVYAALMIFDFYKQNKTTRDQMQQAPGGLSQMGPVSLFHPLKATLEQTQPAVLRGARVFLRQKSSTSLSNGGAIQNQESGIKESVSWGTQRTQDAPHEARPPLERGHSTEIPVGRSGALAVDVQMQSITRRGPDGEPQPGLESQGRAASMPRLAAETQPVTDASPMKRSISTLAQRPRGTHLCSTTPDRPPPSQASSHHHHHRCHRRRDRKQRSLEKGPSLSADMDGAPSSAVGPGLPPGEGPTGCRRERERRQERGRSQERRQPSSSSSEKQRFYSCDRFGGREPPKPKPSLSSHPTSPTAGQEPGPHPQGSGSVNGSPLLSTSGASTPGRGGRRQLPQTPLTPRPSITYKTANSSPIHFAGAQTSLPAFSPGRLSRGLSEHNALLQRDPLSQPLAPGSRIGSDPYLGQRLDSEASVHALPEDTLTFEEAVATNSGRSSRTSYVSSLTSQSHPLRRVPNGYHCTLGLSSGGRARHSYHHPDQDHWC
T6 sequence (Q02410 whole entry): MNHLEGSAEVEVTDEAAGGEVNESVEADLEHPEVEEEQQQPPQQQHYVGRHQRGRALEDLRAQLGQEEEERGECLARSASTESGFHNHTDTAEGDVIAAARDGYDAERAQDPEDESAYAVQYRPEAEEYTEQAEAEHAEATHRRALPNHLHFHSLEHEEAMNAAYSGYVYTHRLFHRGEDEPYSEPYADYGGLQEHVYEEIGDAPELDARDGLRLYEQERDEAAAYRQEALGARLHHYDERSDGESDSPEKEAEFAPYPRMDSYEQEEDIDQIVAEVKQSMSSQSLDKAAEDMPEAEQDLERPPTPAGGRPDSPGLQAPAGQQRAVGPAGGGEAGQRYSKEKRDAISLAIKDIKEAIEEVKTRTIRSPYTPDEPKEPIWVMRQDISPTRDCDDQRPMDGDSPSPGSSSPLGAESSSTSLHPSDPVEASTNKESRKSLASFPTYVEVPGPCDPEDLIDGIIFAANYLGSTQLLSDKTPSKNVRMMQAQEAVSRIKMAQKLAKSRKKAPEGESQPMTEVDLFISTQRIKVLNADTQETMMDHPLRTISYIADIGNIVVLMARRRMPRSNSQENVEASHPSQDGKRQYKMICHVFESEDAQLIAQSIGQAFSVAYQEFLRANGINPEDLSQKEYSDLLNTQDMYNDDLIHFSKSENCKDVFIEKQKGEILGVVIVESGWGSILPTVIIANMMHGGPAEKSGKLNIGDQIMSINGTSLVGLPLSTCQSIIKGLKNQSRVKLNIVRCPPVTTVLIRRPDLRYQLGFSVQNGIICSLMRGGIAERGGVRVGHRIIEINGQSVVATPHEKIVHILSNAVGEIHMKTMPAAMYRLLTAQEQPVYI
Chain of Cytochrome P450 2C9 (P11712 whole entry): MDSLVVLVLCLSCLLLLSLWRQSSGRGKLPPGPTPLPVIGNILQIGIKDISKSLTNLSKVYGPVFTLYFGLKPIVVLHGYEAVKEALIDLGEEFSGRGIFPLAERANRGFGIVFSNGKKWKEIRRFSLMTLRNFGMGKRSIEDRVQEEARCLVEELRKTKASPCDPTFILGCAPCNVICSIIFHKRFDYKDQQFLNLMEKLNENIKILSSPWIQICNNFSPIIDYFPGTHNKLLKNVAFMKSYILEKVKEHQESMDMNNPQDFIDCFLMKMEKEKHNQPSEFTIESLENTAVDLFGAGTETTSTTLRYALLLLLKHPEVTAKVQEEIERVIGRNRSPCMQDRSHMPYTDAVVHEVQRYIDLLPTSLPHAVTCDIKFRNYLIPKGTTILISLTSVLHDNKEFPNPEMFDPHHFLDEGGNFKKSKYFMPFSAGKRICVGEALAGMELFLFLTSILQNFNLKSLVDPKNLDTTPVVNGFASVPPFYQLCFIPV

NCCCNCCCCNCCCN [SPERMINE TETRAHYDROCHLORIDE]
IC50 (Bcl-2-related protein A1): > 20 µM (inactive) | IC50 [1]: 14.3 µM (active) | IC50 [2]: 15.6 µM (active)

Nc1c(C(=O)NCc2ccco2)c2nc3ccccc3nc2n1CCc1ccccc1
IC50 (SUMO-activating enzyme): 1.87 µM (active)

S=C(NCCCN1CCOCC1)NCCCN1CCOCC1
IC50 [3]: 2.61 µM (active) | IC50 [4]: 6.17 µM (active) | IC50 [5]: > 158 µM (not active) | IC50 [6]: > 66 µM (inactive) | IC50 [7]: > 66 µM (inactive)

O=C(NCCCN1CCN(c2ccccc2)CC1)C1CCCN(c2ncnc3c2nc2n3CCCCC2)C1 (centres undefined)
IC50 (Bcl-2-related protein A1): > 20 µM (inactive) | IC50 [1]: 7.51 µM (active) | IC50 [2]: 7.05 µM (active)

Cn1c(SCC(=O)N/N=C/C=C\c2ccco2)nc2ccccc21
AC50 (Cytochrome P450 2D6): inconclusive | AC50 (Cytochrome P450 2C9): inconclusive

CC(C)(C)CCN1CCC[C@H](NC(=O)COc2ccc(F)c(Cl)c2)C1
EC50 [8]: 10 µM (active)

O=C(COC(=O)c1cc(-c2ccco2)nc2ccccc12)NCc1ccccc1
IC50 (SUMO E1/E2): 4.07 µM (active) | IC50 [9]: > 56.8 µM (inactive) | IC50 [10]: > 56.8 µM (inactive)

CC1CCN(C(=O)CSc2nc3cccnc3n2C)CC1
AC50 (Cytochrome P450 2D6): inconclusive

Reference: ChEMBL document CHEMBL1201862, “PubChem BioAssay data set” (2004)
